Measurements published in patent US20080027113A1, “Methods of Using and Compositions Comprising Immunomodulatory Compounds for Treatment and Management of Macular Degeneration” (priority 2003, published 2008).

Columns and labels:
TNF-α production [1] = assay: Inhibition of TNF-α production following LPS-stimulation of human PBMC; type: cell-based; details: for inhibition of LPS-stimulated production of TNF-α by PBMC: result in words; for IC50: human PBMC, LPS-stimulated, read-out: IC50 for inhibiting production of TNF-α following LPS-stimulation of PBMC
TNF-α production [2] = assay: Inhibition of TNF-α production following LPS-stimulation of human whole blood; type: cell-based; details: LPS-stimulated, read-out: IC50 for inhibiting production of TNF-α following LPS-stimulation of human whole blood
IL6 production = assay: LPS-stimulated production of IL6 by PBMC; type: cell-based; details: result in words
IL10 production = assay: Production of anti-inflammatory cytokine IL10 by PBMC; type: cell-based; details: result in words
[3] = system: patients with macular degeneration; assay: Clinical study in patients with macular degeneration, adjuvant to photodynamic therapy with verteporfin; type: in vivo, human; details: about 10 mg/day for 20 weeks as adjuvant to verteporfin photodynamic therapy
Experimental: Immunomodulatory compounds are administered in an amount of about 0.1 to about 25 mg per day to patients with macular degeneration. In a specific embodiment, clinical studies are performed with forty patients with macular degeneration, who are divided into two groups. The first group receives conventional treatment for closing the leaking choroidal vessels (characteristic of this disease) by photodynamic therapy with verteporfin. Ophthalmol 1999 (117): 1329-1345.
Progressive visual loss follows which requires the photodynamic therapy to be repeated.

IL1β production = assay: LPS-stimulated production of IL1β by PBMC; details: result in words

| Structure (SMILES) | inhibition of LPS-stimulated production of TNF-α by PBMC (TNF-α production [1]) | IC50 (TNF-α production [1]) [nM] | IC50 (TNF-α production [2]) [nM] | inhibition of LPS-stimulated production of IL6 by PBMC (IL6 production) | production of the anti-inflammatory cytokine IL10 (IL10 production) | effect on neovascular cascade / duration of photodynamic therapy effect [3] | inhibition of LPS-stimulated production of IL1β by PBMC (IL1β production) |
| --- | --- | --- | --- | --- | --- | --- | --- |
| Nc1cccc2c1CN(C1CCC(=O)NC1=O)C2=O (stereo not shown) | dose-dependent inhibition | ~100 | ~480 | dose-dependent inhibition | increased production | sufficiently hindered | dose-dependent inhibition |
| Nc1cccc2c1C(=O)N(C1CCC(=O)NC1=O)C2=O (stereo not shown) | dose-dependent inhibition | ~24 | ~25 | dose-dependent inhibition | increased production |  | dose-dependent inhibition |
